This note sets out measurements from ChEMBL document CHEMBL1154525, “Synthesis of 2-amino-5-benzoyl-4-(2-furyl)thiazoles as adenosine A(2A) receptor antagonists” (Bioorg Med Chem Lett, 2009).

In one assay the target is Adenosine receptor A2a (Homo sapiens, UniProt P29274). Put plainly: Displacement of [3H]SCH-58261 from human recombinant adenosine A2A receptor expressed in HEK293 cells. Type of assay: cell-based.
The species named for a further assay is Homo sapiens. Put plainly: Selectivity ratio of Ki for human recombinant adenosine A1 receptor to Ki for human recombinant adenosine A2A receptor.
For a further assay, the target named is T1, Adenosine receptor A1 (Homo sapiens, UniProt P30542).
T1 sequence (P30542 whole entry): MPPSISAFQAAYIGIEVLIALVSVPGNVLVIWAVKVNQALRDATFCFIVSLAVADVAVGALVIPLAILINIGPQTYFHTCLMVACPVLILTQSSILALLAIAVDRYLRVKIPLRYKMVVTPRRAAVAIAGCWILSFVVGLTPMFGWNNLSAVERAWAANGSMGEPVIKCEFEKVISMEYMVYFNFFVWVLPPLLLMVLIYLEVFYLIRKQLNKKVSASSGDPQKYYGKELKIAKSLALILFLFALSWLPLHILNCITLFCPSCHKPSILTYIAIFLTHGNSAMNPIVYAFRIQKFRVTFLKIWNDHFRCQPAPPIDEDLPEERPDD
Put plainly: Displacement of [3H]DPCPX from human recombinant adenosine A1 receptor expressed in CHOK1 cells. Type of assay: cell-based, CHO-K1. (Loss of bound radioactivity is the signal in a displacement assay; it reports binding, not function.)

Sequence of Adenosine receptor A2a (P29274 whole entry): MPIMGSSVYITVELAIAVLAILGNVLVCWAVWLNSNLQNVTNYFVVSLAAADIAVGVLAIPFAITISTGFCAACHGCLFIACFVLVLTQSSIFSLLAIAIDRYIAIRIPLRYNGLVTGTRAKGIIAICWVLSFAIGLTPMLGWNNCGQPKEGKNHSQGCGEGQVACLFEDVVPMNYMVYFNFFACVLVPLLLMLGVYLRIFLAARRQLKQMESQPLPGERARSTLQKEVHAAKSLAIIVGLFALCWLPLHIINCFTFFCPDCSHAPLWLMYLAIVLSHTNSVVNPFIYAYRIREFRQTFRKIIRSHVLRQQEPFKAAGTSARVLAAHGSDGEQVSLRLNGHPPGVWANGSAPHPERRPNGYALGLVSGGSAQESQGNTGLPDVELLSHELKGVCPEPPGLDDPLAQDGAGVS

One may read the Ki as the dissociation constant of the complex between target and ligand, obtained from inhibition or displacement. Turning to `O=C(c1ccccc1)c1sc(NC2CCN(C(=O)c3ccccc3F)CC2)nc1-c1ccco1`, the values for the Ki at Adenosine receptor A2a and at Adenosine receptor A1 were 105 nM and 3710 nM, respectively. In addition, in the assay filed under Homo sapiens, the Ratio Ki stood at 35.

For `CN(Cc1ccco1)c1nc(-c2ccco2)c(C(=O)c2ccccc2)s1`, the Ki on Adenosine receptor A2a is 160 nM; at Adenosine receptor A1, 3420 nM. Besides, the Ratio Ki in the assay listed under Homo sapiens turned out to be 21.

Regarding `COCCNc1nc(-c2ccco2)c(C(=O)c2ccccc2)s1`, the Ki on Adenosine receptor A2a amounted to 195 nM; at Adenosine receptor A1, 6780 nM. Moreover, the Ratio Ki in the assay listed under Homo sapiens came to 35.

As for `CC(=O)N1CCC(Nc2nc(-c3ccco3)c(C(=O)c3ccccc3)s2)CC1`, the inhibition constant (Ki) on Adenosine receptor A2a was 455 nM; at Adenosine receptor A1, 1240 nM. For the same compound, the Ratio Ki in the assay filed under Homo sapiens amounted to 3.

On to `CC(C)CNc1nc(-c2ccco2)c(C(=O)c2ccccc2)s1`, for which the inhibition constant (Ki) is 89 nM at Adenosine receptor A2a and 1280 nM at Adenosine receptor A1. In addition, in the assay filed under Homo sapiens, the Ratio Ki was determined as 14.

On to `O=C(c1ccccc1)c1sc(NCCc2ccc3c(c2)OCO3)nc1-c1ccco1`, for which the Ki on Adenosine receptor A2a is 61 nM; at Adenosine receptor A1 it was 3500 nM. In the assay filed under Homo sapiens, the Ratio Ki turned out to be 58.

As for `O=C(c1ccccc1)c1sc(NCCc2cccs2)nc1-c1ccco1`, the results for the Ki at Adenosine receptor A2a and at Adenosine receptor A1 were 12 nM and above 6700 nM, respectively. Further, the Ratio Ki in the assay filed under Homo sapiens is above 580.

Take `CC(=O)NCCNc1nc(-c2ccco2)c(C(=O)c2ccccc2)s1`: the Ki on Adenosine receptor A2a was determined as 281 nM; on Adenosine receptor A1, 2420 nM. Moreover, the Ratio Ki in the assay filed under Homo sapiens is 9.

Regarding `CN(Cc1ccccc1)c1nc(-c2ccco2)c(C(=O)c2ccccc2)s1`, the Ki at Adenosine receptor A2a was 2800 nM; at Adenosine receptor A1, 9460 nM. Further, in the assay filed under Homo sapiens, the Ratio Ki was 3.4.

With `O=C(c1ccccc1)c1sc(N(Cc2ccccc2)Cc2ccco2)nc1-c1ccco1`, the Ki at Adenosine receptor A2a was 88 nM; on Adenosine receptor A1 it was above 10000 nM. Further, the Ratio Ki in the assay filed under Homo sapiens was above 115.

As to `CNc1nc(-c2ccco2)c(C(=O)c2ccccc2)s1`, the results for the Ki at Adenosine receptor A2a and on Adenosine receptor A1 were 67 nM and 3580 nM, respectively. The Ratio Ki in the assay listed under Homo sapiens was found to be 54.

As for `O=C(c1ccccc1)c1sc(N(CCc2cccs2)Cc2ccccc2)nc1-c1ccco1`, the Ki on Adenosine receptor A2a is 7140 nM; at Adenosine receptor A1, above 10000 nM. Also, in the assay listed under Homo sapiens, the Ratio Ki was above 1.4.

For the compound `COC(C)CNc1nc(-c2ccco2)c(C(=O)c2ccccc2)s1` (configuration not stated), the Ki on Adenosine receptor A2a was 154 nM; on Adenosine receptor A1 it was 3970 nM. For the same compound, the Ratio Ki in the assay filed under Homo sapiens stood at 26.

Consider `O=C(c1ccccc1)c1sc(NCCCc2ccccc2)nc1-c1ccco1`, for which the Ki on Adenosine receptor A2a is 105 nM; on Adenosine receptor A1 it was 6300 nM. Besides, the Ratio Ki in the assay filed under Homo sapiens is 60.

Take `CN(C)c1nc(-c2ccco2)c(C(=O)c2ccccc2)s1`: the Ki at Adenosine receptor A2a is 6820 nM; at Adenosine receptor A1 it was above 10000 nM. Moreover, the Ratio Ki in the assay listed under Homo sapiens is above 1.5.

`CN(CCc1cccs1)c1nc(-c2ccco2)c(C(=O)c2ccccc2)s1`: the values for the Ki on Adenosine receptor A2a and at Adenosine receptor A1 were 8170 nM and above 10000 nM, respectively. Moreover, in the assay listed under Homo sapiens, the Ratio Ki is above 1.2.

As for `O=C(c1ccccc1)c1sc(NCc2ccc(F)c(F)c2)nc1-c1ccco1`, the figures for the Ki at Adenosine receptor A2a and at Adenosine receptor A1 were 64 nM and above 7500 nM, respectively. Besides, the Ratio Ki in the assay filed under Homo sapiens was above 120.

For `O=C(c1ccccc1)c1sc(NCc2ccco2)nc1-c1ccco1`, the Ki at Adenosine receptor A2a came out at 43 nM; on Adenosine receptor A1, 1460 nM. Moreover, the Ratio Ki in the assay filed under Homo sapiens is 35.

Take `O=C(c1ccccc1)c1sc(NCc2cccs2)nc1-c1ccco1`: the Ki at Adenosine receptor A2a amounted to 54 nM; on Adenosine receptor A1 it was 2990 nM. Besides, the Ratio Ki in the assay listed under Homo sapiens was 56.
